Read-outs that look alike come from different tables or passages of the source.
Legend:
MCF-7 = assay: MTT cell viability assay, MCF-7; format: cell-based, human; conditions: for IC50: Homo sapiens, MCF7
Source text: (§1) Blokhin National Medical Research Center of Oncology (the Ministry of Health of the Russian Federation, Moscow).

A549 = assay: MTT cell viability assay, A549; format: cell-based, human; conditions: for IC50: Homo sapiens
Source text: as §1

MS = assay: MTT cell viability assay, MS; format: cell-based, human; conditions: for IC50: Homo sapiens;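 on IC50 (mean ± SD): MS is a melanocyte cell line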
Source text: as §1

[1] = test system: Active Caspase-3 in HBL-100/Dox cells; assay: Flow cytometric analysis of active caspase-3, HBL-100/Dox; format: cell-based, human; conditions: for gMIF, Active Caspase-3: 24 h
Protocol: The cells were detached with accutase (HiMedia Laboratories, Maharashtra, India) and then fixed with 70% ice cold ethanol followed by overnight incubation at 4 °C. The cells were washed twice with PBS, permeabilized using 0.1% Triton X-100 in PBS solution, and subsequently stained with 5 μL of the BD Horizon™ BV605 Rabbit Anti-Active Caspase-3 antibody (BD Biosciences, Franklin Lakes, NJ, USA). The cells were then washed, resuspended in PBS, and analyzed using a CytoFlex S flow cytometer (Beckman Coulter, Brea, CA, USA). Cell fluorescence was evaluated on a CytoFlex S flow cytometer (Beckman Coulter, Brea, CA, USA). The results were analyzed using FlowJo software (ver. X 10.0.7r2, FlowJo Software, San Jose, CA, USA) and represented as geometric mean fluorescence intensity (gMFI).

HBL-100 cells = assay: Western blotting of cytochrome c, cleaved caspase-9 and -8, HBL-100; format: cell-based, human; conditions: 16 h, IC50
Protocol: (§2) The supernatant (cytosol fraction) and mitochondrial pellets were then collected, and protein concentration was determined by UV […] using 1–100 μg/mL BSA as standard curve concentrations (UV-2600i spectrophotometer; Shimadzu, Tokyo, Japan).
(§3) Then, the same protein amounts (20.0 µg in each lane) were loaded and separated by 4–20% Mini-PROTEAN TGX Stain-Free Protein Gels (Bio-Rad Laboratories, Hercules, CA, USA), followed by transferring onto polyvinylidene difluoride (PVDF) membranes. The membranes were blocked with 1% (w/v) casein in Tris-buffered saline containing 0.1% Tween-20 (TBS-T), and were incubated overnight with primary antibodies (1:1000) of Cytochrome c (D18C7) Rabbit mAb, Cleaved Caspase-9 (Asp330) (E5Z7N) Rabbit mAb, Cleaved Caspase-8 (Asp374) (18C8) Rabbit mAb, and β-Actin (D6A8) Rabbit mAb (Cell Signaling Technology, Danvers, MA, USA) for cytosol and mitohondrial fractions at 4 °C. The next day, the PVDF membranes were washed thrice in TBS-T and incubated with HRP-conjugated secondary antibodies (1:1000) (Cell Signaling Technology, Danvers, MA, USA) for 1 h at RT. Immunoreactive proteins were detected by Clarity Western ECL Substrate (Bio-Rad Laboratories, Hercules, CA, USA) and then analyzed on the ChemiDoc MP Imaging system (Bio-Rad Laboratories, Hercules, CA, USA). The proteins were quantified by densitometry using Image Lab software (version 6.0; Bio-Rad Laboratories, Hercules, CA, USA). To normalize protein expression data, a blot with β-Actin was used.

HBL-100/Dox cells = assay: Western blotting of cytochrome c, cleaved caspase-9 and -8, HBL-100/Dox; format: cell-based, human; conditions: 16 h, IC50
Protocol: as §2, §3

HEK293 = assay: MTT cell viability assay, HEK293; format: cell-based; conditions: Homo sapiens
Source text: as §1

HEpG2 = assay: MTT cell viability assay, HEpG2; format: cell-based, human; conditions: for IC50: Homo sapiens
Source text: as §1

HBL-100/Dox = assay: MTT cell viability assay, HBL-100/Dox; format: cell-based, human
Protocol: (§4) The cells were cultured in a humidified CO2 incubator (model 460-CE; Thermo Fisher Scientific, Waltham, MA, USA) at +37 °C and 5% CO2.
(§5) The percentage of the viable cells was calculated according to the following equation: cell viability (%) = 100 × (mean absorbance in the treatment group/mean absorbance in the control group). The results were expressed pictorially using Prism 6.0 (GraphPad Software, Boston, MA, USA).

HBL-100 = assay: MTT cell viability assay, HBL-100; format: cell-based, human; conditions: for IC50: Homo sapiens
Protocol: as §4, §5

human cancer cell lines = assay: MTT assay, panel of cancer cell lines; conditions: for IC50: Homo sapiens
Protocol: In this study, the human embryonic kidney cell line HEK293 was used as the non-cancerous cell line.
To investigate the cytotoxic activity of the compounds under study, the MTT colorimetric assay [45] was performed. […] After 72 h, 20 μL of 5 mg/mL solution of MTT (PanEco, Moscow, Russia), in sterile phosphate-buffered saline (PBS; PanEco, Moscow, Russia), was added to each well and further incubated for 4 h. Then, the medium with the compounds was removed, and the formed formazan crystals were dissolved in 100 μL of DMSO. […] The IC50 values were determined from dose-dependent curves, using Prism 6.0 (GraphPad Software, Boston, MA, USA).

PC-3 = assay: MTT cell viability assay, PC-3; format: cell-based, human; conditions: for IC50: Homo sapiens
Source text: as §1

## COC(=O)[C@]12CC[C@@H](C(C)C)[C@@H]1[C@H]1CC[C@@H]3[C@@](C)(CCC#N)[C@H](C(=O)C(Br)Br)CC[C@@]3(C)[C@]1(C)CC2 [compound 31, 2-Cyano-24,24-dibromo-4-oxo-3,4-seco-3,23-dinorlupan-28-oic acid methyl ester]
MCF-7; MCF-7, MTT, 72 h of treatment, read-out: IC50 Values (Mean ± SD)
  IC50: 7.1 ± 0.7 µM
MCF-7; Table S1, MCF-7, read-out: IC50 (mean ± SD)
  IC50: 7.06 ± 0.72 µM
MCF-7; ratio of IC50 values healthy (HEK293) / MCF-7
  Selectivity index (SI): 1.62
A549; A549, MTT, 72 h of treatment, read-out: IC50 Values (Mean ± SD)
  IC50: 7 ± 0.2 µM
A549; Table S1, A549, read-out: IC50 (mean ± SD)
  IC50: 7.01 ± 0.21 µM
A549; ratio of IC50 values healthy (HEK293) / A549
  Selectivity index (SI): 1.64
MS; MS, MTT, 72 h of treatment, read-out: IC50 Values (Mean ± SD)
  IC50: 16.5 ± 1.5 µM
MS; Table S1, MS, read-out: IC50 (mean ± SD)
  IC50: 16.5 ± 1.53 µM
MS; ratio of IC50 values healthy (HEK293) / MS
  Selectivity index (SI): 0.70
[1]; dose 2×IC50
  gMIF, Active Caspase-3: 19252±347
[1]; dose IC50
  gMIF, Active Caspase-3: 13428±202
[1]; after 24 h of MK treatment
  caspase-3 activation in comparison to the HBL-100 cells: doubly pronounced
HBL-100 cells
  activation of caspase-8: not observed
  activation of caspase-9: sequential activation of initiator caspase-9
  cytochrome c release: provoked the release of cytochrome c from mitochondria to cytosol
HBL-100/Dox cells
  activation of caspase-8: not observed
  activation of caspase-9: sequential activation of initiator caspase-9
  cytochrome c release: provoked the release of cytochrome c from mitochondria to cytosol
HEK293; HEK293, MTT, 72 h of treatment, read-out: IC50 Values (Mean ± SD)
  IC50: 11.5 ± 0.6 µM
HEK293; Table S1, HEK293, read-out: IC50 (mean ± SD)
  IC50: 11.5 ± 0.56 µM
HEpG2; HEpG2, MTT, 72 h of treatment, read-out: IC50 Values (Mean ± SD)
  IC50: 16.6 ± 0.4 µM
HEpG2; Table S1, HEpG2, read-out: IC50 (mean ± SD)
  IC50: 16.6 ± 0.41 µM
HEpG2; ratio of IC50 values healthy (HEK293) / HEpG2
  Selectivity index (SI): 0.69
HBL-100/Dox; HBL-100/Dox, MK at IC50 dose, after 72 h exposure
  death of the cells: 50%
HBL-100/Dox; Homo sapiens, HBL-100, 72 h, read-out: IC50 Values (Mean ± SD)
  IC50: 1.8 ± 0.1 µM
HBL-100/Dox; ratio of IC50 values healthy (HEK293) / HBL-100/Dox
  Selectivity index (SI): 6.39
HBL-100; HBL-100, MK at IC50 dose, after 72 h exposure
  death of the cells: 50%
HBL-100; HBL-100, MTT, 72 h of treatment, read-out: IC50 Values (Mean ± SD)
  IC50: 1 ± 0.1 µM
HBL-100; Table S1, HBL-100, read-out: IC50 (mean ± SD)
  IC50: 0.99 ± 0.001 µM
HBL-100; ratio of IC50 values healthy (HEK293) / HBL-100
  Selectivity index (SI): 11.50
Human cancer cell lines; read-out: IC50 values (range)
  IC50: 0.7 to 7.1 µM
Human cancer cell lines; read-out: cytotoxicity (IC50 range)
  IC50: 0.7 to 16.6 µM
Human cancer cell lines; MTT screening, Table S1
  cytotoxicity in the screening studies: pronounced cytotoxic effect
Human cancer cell lines; against HBL-100/Dox, HBL-100, and RD TE32 cells
  SI (range): 6.39–16.43
PC-3; PC-3, MTT, 72 h of treatment, read-out: IC50 Values (Mean ± SD)
  IC50: 10.4 ± 1.3 µM
PC-3; Table S1, PC-3, read-out: IC50 (mean ± SD)
  IC50: 10.3 ± 1.27 µM
PC-3; ratio of IC50 values healthy (HEK293) / PC-3
  Selectivity index (SI): 1.11

— PMC10298530, “Synthesis and Anticancer Activity of A-Ring-Modified Derivatives of Dihydrobetulin” (International Journal of Molecular Sciences, 2023)
